Source: patent US3954776A, “1-[Methylated piperidino(and pyrrolidin-1-yl)]-3-(substituted phenoxy)-2propanols” (Yoshitomi Pharmeceutical Industries, Ltd., priority 1973, dated 1976)
Converted amounts (≈) assume the structure as drawn. Where a name gives a salt, the structure may show the parent alone.

Assays:
[1] = tested on: guinea pig; experiment: Surface anaesthetic action; assay type: in vivo; settings: relative to procaine = 1; guinea pig (male, about 400 g); method of Chance et al
Protocol: 3. Surface anaesthetic action
The test was performed essentially by the method described by M.R.A. Chance et al in "Journal of Pharmacology and Experimental Therapeutics", vol. 82, 203-210 (1944), using guinea pig (male, about 400 g).

[2] = tested on: isolated guinea pig atria; experiment: Antiarrhythmic action on functional refractory period; assay type: cell-based; settings: method of Zetler et al; for EC50: Cavia porcellus
Protocol: 1. Antiarrhythmic action on functional refractory period
The test was performed essentially by the method described by G. Zetler et al in "Naunyn-Schmiedebergs Archiv fur Pharmakologie", vol. 271, 335-345 (1971), using isolated guinea pig atria.

[3] = tested on: guinea pig; experiment: Infiltration anaesthetic action; assay type: in vivo; settings: relative to procaine = 1; guinea pig (male, about 400 g); method of Bulbring et al
Protocol: 2. Infiltration anaesthetic action
The test was performed essentially by the method described by E. Bulbring et al in "Journal of Pharmacology and Experimental Therapeutics", vol. 85, 78-84 (1945), using guinea pig (male, about 400 g).

| Compound | Efficiency Rate (procaine = 1), surface anaesthetic action [1] | EC50 (antiarrhythmic action on functional refractory period) [2] | Efficiency Rate (procaine = 1), infiltration anaesthetic action [3] | EC50 [2] [µg/mL] |
| --- | --- | --- | --- | --- |
| Cc1ccccc1OCC(O)CN1C(C)(C)CCC1(C)C (centres unmarked) [Lotucaine, 1-(2,2,5,5-tetramethylpyrrolidin-1-yl)-3-(o-tolyloxy)-2-propanolhydrochloride, reference compound] | 11.1 | no effect | 11.3 | – |
| CC1(C)CCCC(C)(C)N1CC(O)COc1ccccc1OCC1CCCO1 (centres unmarked) [B] | 26.7 | – | – | 17 (≈ 43.4 µM) |
| CC1CCCC(C)N1CC(O)COc1ccccc1Cc1cccs1 (centres unmarked) [I] | 27.1 | – | 98.7 | – |
| CC1(C)CCC(C)(C)N1CC(O)COc1ccccc1OCc1ccco1 (centres unmarked) [C] | 30.0 | – | – | 13 (≈ 34.8 µM) |
| CC1(C)CCCC(C)(C)N1CC(O)COc1ccccc1Cc1cccs1 (centres unmarked) [J] | – | – | 35.6 | – |
| CC1CCCCN1CC(O)COc1ccccc1Cc1cccs1 (centres unmarked) [K] | – | – | 167.5 | – |
| COCCOc1ccccc1OCC(O)CN1C(C)(C)CCCC1(C)C (centres unmarked) [A] | – | – | – | 24 (≈ 65.7 µM) |
| CC1(C)CCCC(C)(C)N1CC(O)COc1ccccc1OCc1ccco1 (centres unmarked) [H] | – | – | 51.7 | – |
| CSCCOc1ccccc1OCC(O)CN1C(C)(C)CCCC1(C)C (centres unmarked) [D] | 27.2 | – | – | 15 (≈ 39.3 µM) |
| CC1CCCC(C)N1CC(O)COc1ccccc1OCc1cccs1 (centres unmarked) [G] | 23.6 | – | – | 18 (≈ 47.9 µM) |
| CC1(C)CCCC(C)(C)N1CC(O)COc1ccccc1Oc1ccccn1 (centres unmarked) [F] | – | – | – | 12 (≈ 31.2 µM) |
| CC1CCCCN1CC(O)COc1ccc(Cc2cccs2)cc1 (centres unmarked) [L] | 23.9 | – | – | – |
| CC1(C)CCCC(C)(C)N1CC(O)COc1ccccc1Cc1ccccn1 (centres unmarked) [E] | – | – | – | 22 (≈ 57.5 µM) |
